Measured values published in patent US8835134B2, “Cycloastragenol monoglucoside, preparation, pharmaceutical composition and application thereof” (Tianjin Institute of Pharmaceutical Research, priority 2007, dated 2014).

Test system: anesthetized open-chest dogs
Assay: Hemodynamics of anesthetized open-chest dogs, intravenous infusion
Assay type: in vivo, mongrel dogs
Conditions: 0.3 mg/kg iv
Procedure: The animals were anesthetized by intravenous injection of 30 mg/kg sodium pentobarbital, tracheally intubated, and mechanically ventilated with positive air pressure. Left thoracotomy was performed through the fourth intercostal space and the heart was suspended in a pericardial cradle, the aortic root was isolated and a probe of blood flow meter (12 or 14 mm in diameter) was fixed to measure the aortic blood flow as a representation of cardiac output (CO), the circumflex branch of left coronary artery was isolated and a probe of blood flow meter (2 or 2.5 mm in diameter) was fixed to measure the coronary blood flow (CBF). A polyethylene catheter filled with heparin physiological saline was inserted through cardiac apex into the left ventricle to measure the left ventricular pressure (LVP) and left ventricular end-diastolic pressure (LVEDP), Peak positive and peak negative first derivatives of the LVP (+ LVdp/dt and − LVdp/dt) were calculated with the Acknowledge software. The systolic blood pressure (SBP), diastolic blood pressure (DBP) and mean arterial pressure (MAP) were measured by polyethylene catheter via the femoral artery, ECG □ was measured by a AC-601G ECG amplifier. The above-mentioned analog signal was input into a data acquisition workstation (MP100, BIOPAC Systems, USA) to a computer running Acknowledge (version 3.7.1).
After surgery, various indexes before administration were recorded until the indexes were stable, and then intravenous infusion administration was conducted. Thirty dogs were divided into five groups (six dogs in each group), the experiment groups were given 0.15, 0.3, 0.6 mg/kg of ASP-[…] respectively, the normal control group was given 1 ml/kg of solvent, and the positive control group was given 0.3 mg/kg of astragaloside IV. The delivery volumes were 15 ml for each dog was and the delivery velocity was 1 ml/min. The indexes were recorded at 5, 10, 15, 20, 30, 45, 60, 90 and 120 mins after drug administration. At the end of experiment, the hearts were excised and weighted. The myocardial blood flow for per hectogram (CF), coronary resistance (CR), cardiac index (CI), left ventricular work (LVW) and total peripheral resistance (TPR) were calculated according to the following formulae: CF=CBF×[…]/heart weight CR=MAP/CF CI=CO/0.11×(body weight)^2/3 LVW=CO×(MAP−5)×1.052×0.0136 TPR=MAP×79.92/CO
Data are expressed as mean±SD ( x±s), the paired t-test was used to compare the significance between before and after administration, the unpaired t-test was adopted for comparison between groups.

CC(C)(O)[C@@H]1CC[C@](C)([C@H]2[C@@H](O)C[C@@]3(C)C4C[C@H](OC5OC(CO)C(O)C(O)C5O)C5C(C)(C)[C@@H](O)CC[C@@]56C[C@@]46CC[C@]23C)O1 (stereo partly drawn) [CMG, Cycloastragenol-6-O-β-D-glucoside]
CR (10 min after administration): 1.50 ± 0.71 mmHg/ml/min/100 g | CR change vs before administration (10 min after administration): (−0.03 ± 0.12) mmHg/ml/min/100 g | LVEDP (10 min after administration): 1 ± 2.4 mmHg | LVEDP change vs before administration (10 min after administration): (−0.75 ± 0.34) mmHg | LVP (10 min after administration): 106 ± 22 mmHg | LVP change vs before administration (10 min after administration): (2.3 ± 6.9) mmHg | LVW (10 min after administration): 1.02 ± 0.44 kg · m | LVW change vs before administration (10 min after administration): (0.00 ± 0.15) kg · m | TPR (10 min after administration): 5683 ± 2354 dyn · s/cm^5 | TPR change vs before administration (10 min after administration): (384 ± 1293) dyn · s/cm^5 | dp/dt (10 min after administration): 1358 ± 444 mmHg/s | dp/dt change vs before administration (10 min after administration): (97 ± 68) mmHg/s | −dp/dt (10 min after administration): −925 ± 299 mmHg/s | −dp/dt change vs before administration (10 min after administration): (−4 ± 80) mmHg/s | CF (15 min after administration): 51.3 ± 21.1 ml/min/100 g | CF change vs before administration (15 min after administration): (1.1 ± 4.2) ml/min/100 g | CI (15 min after administration): 1.98 ± 0.84 L/min/m^2 | CI change vs before administration (15 min after administration): (−0.01 ± 0.28) L/min/m^2 | CO (15 min after administration): 1.10 ± 0.38 L/min | CO change vs before administration (15 min after administration): (0.00 ± 0.17) L/min | CR (15 min after administration): 1.56 ± 0.76 mmHg/ml/min/100 g | CR change vs before administration (15 min after administration): (0.02 ± 0.15) mmHg/ml/min/100 g | LVEDP (15 min after administration): 0.7 ± 2.6 mmHg | LVEDP change vs before administration (15 min after administration): (−1.06 ± 0.54) mmHg | LVP (15 min after administration): 106 ± 20 mmHg | LVP change vs before administration (15 min after administration): (2.3 ± 5.4) mmHg | LVW (15 min after administration): 1.02 ± 0.44 kg · m | LVW change vs before administration (15 min after administration): (0.00 ± 0.16) kg · m | TPR (15 min after administration): 5535 ± 2356 dyn · s/cm^5 | TPR change vs before administration (15 min after administration): (236 ± 1386) dyn · s/cm^5 | dp/dt (15 min after administration): 1367 ± 470 mmHg/s | dp/dt change vs before administration (15 min after administration): (106 ± 54) mmHg/s | −dp/dt (15 min after administration): −947 ± 308 mmHg/s | −dp/dt change vs before administration (15 min after administration): (−25 ± 74) mmHg/s | CF (20 min after administration): 51.4 ± 19.2 ml/min/100 g | CF change vs before administration (20 min after administration): (1.2 ± 4.0) ml/min/100 g | CI (20 min after administration): 1.94 ± 0.81 L/min/m^2 | CI change vs before administration (20 min after administration): (−0.04 ± 0.11) L/min/m^2 | CO (20 min after administration): 1.08 ± 0.36 L/min | CO change vs before administration (20 min after administration): (−0.02 ± 0.06) L/min | CR (20 min after administration): 1.51 ± 0.68 mmHg/ml/min/100 g | CR change vs before administration (20 min after administration): (−0.02 ± 0.14) mmHg/ml/min/100 g | LVEDP (20 min after administration): 0.6 ± 2.5 mmHg | LVEDP change vs before administration (20 min after administration): (−1.16 ± 0.89) mmHg | LVP (20 min after administration): 104 ± 23 mmHg | LVP change vs before administration (20 min after administration): (1.2 ± 6.9) mmHg | LVW (20 min after administration): 1.02 ± 0.47 kg · m | LVW change vs before administration (20 min after administration): (0.00 ± 0.05) kg · m | TPR (20 min after administration): 5513 ± 1980 dyn · s/cm^5 | TPR change vs before administration (20 min after administration): (214 ± 869) dyn · s/cm^5 | dp/dt (20 min after administration): 1348 ± 487 mmHg/s | dp/dt change vs before administration (20 min after administration): (87 ± 77) mmHg/s | −dp/dt (20 min after administration): −937 ± 289 mmHg/s | −dp/dt change vs before administration (20 min after administration): (−16 ± 91) mmHg/s | CF (30 min after administration): 51.4 ± 24.5 ml/min/100 g | CF change vs before administration (30 min after administration): (1.2 ± 6.2) ml/min/100 g | CI (30 min after administration): 1.92 ± 0.78 L/min/m^2 | CI change vs before administration (30 min after administration): (−0.06 ± 0.30) L/min/m^2 | CO (30 min after administration): 1.07 ± 0.36 L/min | CO change vs before administration (30 min after administration): (−0.03 ± 0.18) L/min | CR (30 min after administration): 1.51 ± 0.74 mmHg/ml/min/100 g | CR change vs before administration (30 min after administration): (−0.02 ± 0.09) mmHg/ml/min/100 g | LVEDP (30 min after administration): 0.6 ± 2.4 mmHg | LVEDP change vs before administration (30 min after administration): (−1.11 ± 0.87) mmHg | LVP (30 min after administration): 102 ± 23 mmHg | LVP change vs before administration (30 min after administration): (−1.3 ± 4.7) mmHg | LVW (30 min after administration): 0.97 ± 0.46 kg · m | LVW change vs before administration (30 min after administration): (−0.05 ± 0.13) kg · m | TPR (30 min after administration): 5318 ± 2153 dyn · s/cm^5 | TPR change vs before administration (30 min after administration): (19 ± 1444) dyn · s/cm^5 | dp/dt (30 min after administration): 1304 ± 459 mmHg/s | dp/dt change vs before administration (30 min after administration): (43 ± 100) mmHg/s | −dp/dt (30 min after administration): −885 ± 293 mmHg/s
